Assay: Assay (I): Determination of Solubility (96-well plate, pH 3.0-11.0, organic solvent 0-70% w/w, UV absorption at 280 nm)
Assay type: physicochemical
Conditions: for Peptide concentration after 180 min / Peptide concentration after 24 h / Peptide concentration after 5 min: Method 1; for GLP-1 peptide concentration: Method 2 (precipitation), MeCN 57.3% w/w, 5° C.
Procedure: Assay (I): Determination of Solubility
96-Well Plate Preparation
96-well plates containing target peptide in a solid form were prepared in one of two ways:
Method 1 (evaporation): Addition of 100 μl stock solution of said peptide at a concentration of 4-6 mg/ml to each well of a 96-well half area plate (150 μl well size). Subsequently the solvent was evaporated by applying a vacuum until the solvent was completely removed.
Method 2 (precipitation): Addition of a certain volume of a stock solution of said peptide containing to each well of a 96-well half area plate followed by the addition of a certain volume of concentrated phosphoric acid to obtain a pH of 4.6 followed by addition of a certain volume of ethanol resulting in a final ethanol concentration of 20% v/v. Subsequently the plate was stored at 4° C. for 1 h and then centrifuged at 4,000 rpm for 20 min. Finally the supernatant was removed. The concentration of the stock solution was chosen in a way that the final amount of peptide after supernatant removal was >0.4 mg per well.
In both cases the stock solution was prepared by adding de-ionized water to a certain amount of powder of said peptide followed by a stepwise addition of small amounts of a concentrated sodium hydroxide solution until said peptide was completely in solution.
To determine solubility of a target peptide at different pH and organic solvent concentrations, two different buffer systems were used in independent experiments to cover the whole range from pH 3.0 to pH 11.0. Buffer system 1 covers pH 3.0-7.5 and buffer system 2 covers pH 7.5-11.0. For each buffer system 96 different solvent compositions were premixed in the following way: • 1. A low pH buffer (adjusted to either pH 3.0 or pH 7.5) and a high pH buffer (adjusted to either pH 7.5 or pH 11.0) were mixed at 8 different ratios to obtain values between pH 3.0 and pH 7.5 or pH 7.5 and pH 11.0, respectively. The total volume after mixing was 300 μl. • 2. 12 different amounts of organic solvent were then added to these buffers to obtain organic solvent (e.g. ethanol) concentrations between 0 and 70% w/w. • 3. Water was then added to obtain a total weight of 1.0 g of solvent in each well.
After preparing the 96 different solvent systems, 100 μl of each system was transferred to the 96-well plate containing the solid form of the target peptide (prepared as described in the section “96-well plate preparation”). The plate was then stored at a given temperature (between 5° C. and 70° C.) for a given time on a rotating shaker set to 400 rpm. At regular time intervals the plate was centrifuged (4,000 rpm for 10 min) and a 10 μl sample was taken from each well. The samples were then analysed by UV absorption at 280 nm for peptide quantification. Peptide concentration results are given as UV absorption at 280 nm of the sample subtracted UV absorption at 280 nm of a well comprising 10 μl water.
The buffers used were as follows: • Buffer system 1 (for the pH range from pH 3.0-7.5)
• Buffer system 2 (for the pH ranae from pH 7.5-11.0)
Solubility of liraglutide was determined using Assay (I) described herein. Liraglutide was prepared using Method 1 (evaporation) or Method 2 (precipitation) as described in subsection “96-well plate preparation”.

## CCCCCCCCCCCCCCCC(=O)N[C@@H](CCC(=O)NCCCC[C@H](NC(=O)[C@H](C)NC(=O)[C@H](C)NC(=O)[C@H](CCC(N)=O)NC(=O)CNC(=O)[C@H](CCC(=O)O)NC(=O)[C@H](CC(C)C)NC(=O)[C@H](Cc1ccc(O)cc1)NC(=O)[C@H](CO)NC(=O)[C@H](CO)NC(=O)[C@@H](NC(=O)[C@H](CC(=O)O)NC(=O)[C@H](CO)NC(=O)[C@@H](NC(=O)[C@H](Cc1ccccc1)NC(=O)[C@@H](NC(=O)CNC(=O)[C@H](CCC(=O)O)NC(=O)[C@H](C)NC(=O)[C@@H](N)Cc1cnc[nH]1)[C@@H](C)O)[C@@H](C)O)C(C)C)C(=O)N[C@@H](CCC(=O)O)C(=O)N[C@@H](Cc1ccccc1)C(=O)N[C@H](C(=O)N[C@@H](C)C(=O)N[C@@H](Cc1c[nH]c2ccccc12)C(=O)N[C@@H](CC(C)C)C(=O)N[C@H](C(=O)N[C@@H](CCCNC(=N)N)C(=O)NCC(=O)N[C@@H](CCCNC(=N)N)C(=O)NCC(=O)O)C(C)C)[C@@H](C)CC)C(=O)O [liraglutide, Arg34,Lys26-(N-epsilon-(gamma-L-glutamyl(N-alfa-hexadecanoyl)))-GLP-1(7-37)]
MeCN 63.6% w/w, pH 9.5, 5° C.
  Peptide concentration after 180 min: 0.5 mg/mL
  Peptide concentration after 24 h: 1.4 mg/mL
MeCN 63.6% w/w, pH 10.0, 5° C.
  Peptide concentration after 5 min: 0.2 mg/mL
  Peptide concentration after 180 min: 0.3 mg/mL
  Peptide concentration after 24 h: 0.7 mg/mL
MeCN 63.6% w/w, pH 10.5, 5° C.
  Peptide concentration after 5 min: 0.2 mg/mL
  Peptide concentration after 180 min: 0.3 mg/mL
  Peptide concentration after 24 h: 0.6 mg/mL
MeCN 63.6% w/w, pH 11.0, 5° C.
  Peptide concentration after 5 min: 0.5 mg/mL
  Peptide concentration after 180 min: 0.6 mg/mL
  Peptide concentration after 24 h: 1.3 mg/mL
MeCN 70.0% w/w, pH 5.6, 5° C.
  Peptide concentration after 5 min: 0.2 mg/mL
  Peptide concentration after 180 min: 0.3 mg/mL
  Peptide concentration after 24 h: 0.4 mg/mL
MeCN 70.0% w/w, pH 6.2, 5° C.
  Peptide concentration after 5 min: 0.2 mg/mL
  Peptide concentration after 180 min: 0.3 mg/mL
  Peptide concentration after 24 h: 0.5 mg/mL
MeCN 70.0% w/w, pH 6.9, 5° C.
  Peptide concentration after 5 min: 0.2 mg/mL
  Peptide concentration after 180 min: 0.3 mg/mL
  Peptide concentration after 24 h: 0.5 mg/mL
MeCN 70.0% w/w, pH 7.5, 5° C.
  Peptide concentration after 5 min: 0.3 mg/mL
  Peptide concentration after 180 min: 0.4 mg/mL
  Peptide concentration after 24 h: 0.8 mg/mL
MeCN 70.0% w/w, pH 8.0, 5° C.
  Peptide concentration after 5 min: 0.3 mg/mL
  Peptide concentration after 180 min: 0.4 mg/mL
  Peptide concentration after 24 h: 0.6 mg/mL
MeCN 70.0% w/w, pH 8.5, 5° C.
  Peptide concentration after 5 min: 0.2 mg/mL
  Peptide concentration after 180 min: 0.4 mg/mL
  Peptide concentration after 24 h: 0.7 mg/mL
MeCN 70.0% w/w, pH 9.0, 5° C.
  Peptide concentration after 5 min: 0.2 mg/mL
  Peptide concentration after 180 min: 0.4 mg/mL
  Peptide concentration after 24 h: 0.9 mg/mL
MeCN 70.0% w/w, pH 9.5, 5° C.
  Peptide concentration after 5 min: 0.2 mg/mL
  Peptide concentration after 180 min: 0.3 mg/mL
  Peptide concentration after 24 h: 0.5 mg/mL
MeCN 70.0% w/w, pH 10.0, 5° C.
  Peptide concentration after 5 min: 0.2 mg/mL
  Peptide concentration after 180 min: 0.3 mg/mL
  Peptide concentration after 24 h: 0.4 mg/mL
MeCN 70.0% w/w, pH 10.5, 5° C.
  Peptide concentration after 5 min: 0.2 mg/mL
  Peptide concentration after 180 min: 0.2 mg/mL
  Peptide concentration after 24 h: 0.4 mg/mL
MeCN 70.0% w/w, pH 11.0, 5° C.
  Peptide concentration after 5 min: 0.2 mg/mL
  Peptide concentration after 180 min: 0.2 mg/mL
  Peptide concentration after 24 h: 0.5 mg/mL
pH 9.00, 5 min, after removal of outliers
  GLP-1 peptide concentration: 0.6 mg/mL
pH 9.00, 5 min, before removal of outliers
  GLP-1 peptide concentration: 0.6 mg/mL
pH 9.00, 180 min, after removal of outliers
  GLP-1 peptide concentration: 3.4 mg/mL
pH 9.00, 180 min, before removal of outliers
  GLP-1 peptide concentration: 3.4 mg/mL
pH 9.00, 24 h, after removal of outliers
  GLP-1 peptide concentration: 1.4 mg/mL
pH 9.00, 24 h, before removal of outliers
  GLP-1 peptide concentration: 1.4 mg/mL
pH 9.50, 5 min, after removal of outliers
  GLP-1 peptide concentration: 0.5 mg/mL
